According to patent US5750405A, “Method for the detection for protein” (priority 1996, dated 1998):

Legend:
[1] = system: albumin; conditions: Coomassie Brilliant Blue; cited from earlier work
[2] = system: Urinary proteins; experiment: DIDNTB reagent strip protein response, Example I, other urinary proteins; assay type: binding; conditions: additive 6 mM; vs control formula lacking additive; negative = loss of protein response
Description: (§1) The DIDNTB protein reagent was made from two saturations of Alhstrom 204 filter paper in which the first saturation was made with an aqueous ethanol mix containing tartaric acid as buffer and methyl red as background dye. The pH was adjusted to 2.1. The second saturation was with a toluene/tetrahydrofuran mix containing the DIDNTB indicator dye and Lutanol M40 (a polyvinylmethylether) as a color enhancer polymer.
(§2) The mix solutions were used to saturate the filter paper and the paper was dried at 105° C. for 7 minutes after each saturation. The resultant dry reagents were processed into reagent strips which were tested on a Clinitek-200+ reflectance spectrophotometer from Bayer Diagnostics after dipping into urine containing 0 or 30 mg/dL human serum albumin or 40 mg/dL of another urinary protein. The particulars of each dip solution are set out in Table 3.
Prior to the addition of HSA, the urine sample was filtered through an ultrafiltration membrane having a 10 KDa (kilodalton) molecular weight cut-off to remove naturally occurring proteins. The total protein in the urine sample was determined using an immunological HSA assay and the Coomassie Brilliant Blue (CBB) method described by Perini et al as cited above to screen over 175 clinical samples to provide specimens lacking albumin but containing other urine protein. […] These urines were pooled and diluted with negative urine to 40 mg/dL by the CBB method and less than 1.2 mg/dL by immunological HSA assay. The reagent response was measured on the […]-200+ instrument as the result of 1000×% Reflectance @ 610 nm/% reflectance @ 690 nm. The difference between negative and protein containing urines was taken as the protein response. The data generated by this experiment are set out in Table 1 in which the protein response of control formula lacking polymer or substituted alkane additive is compared to the formulas containing polymer or alkane to determine the % change in response. Negative numbers indicate greater loss of protein response. […]

[3] = target: human serum albumin (HSA) (Homo sapiens, UniProt P02768); experiment: DIDNTB reagent strip protein response, Example I, HSA; conditions: for protein response: Example I, 6 mM of substituted alkane; for % change in response, HSA 30 mg/dL: additive 6 mM, vs control formula lacking additive, negative = loss of protein response
Description: as §1, §2
Prior to the addition of HSA, the urine sample was filtered through an ultrafiltration membrane having a 10 KDa (kilodalton) molecular weight cut-off to remove naturally occurring proteins. The total protein in the urine sample was determined using an immunological HSA assay and the Coomassie Brilliant Blue (CBB) method described by Perini et al as cited above to screen over 175 clinical samples to provide specimens lacking albumin but containing other urine protein. […] These urines were pooled and diluted with negative urine to 40 mg/dL by the CBB method and less than 1.2 mg/dL by immunological HSA assay. The reagent response was measured on the […]-200+ instrument as the result of 1000×% Reflectance @ 610 nm/% reflectance @ 690 nm. The difference between negative and protein containing urines was taken as the protein response. The data generated by this experiment are set out in Table 1 in which the protein response of control formula lacking polymer or substituted alkane additive is compared to the formulas containing polymer or alkane to determine the % change in response. Negative numbers indicate greater loss of protein response.
The HSA response in the presence of these additives was compared to the response for other urinary proteins such as Tamm Horsefall glycoprotein, Bence-Jones protein, α-1-microglobin, hemoglobin and various low molecular weight protein fragments. The additives were used at a 0.1% (w/w) concentration to allow a measurable HSA response in all cases. The 0.1% concentration amounts to […] concentration of additive and is in excess of the 4.4 μM concentration of the proteins tested.

[4] = system: albumin; conditions: cited from earlier work

Chain of human serum albumin (HSA) (P02768 25-609): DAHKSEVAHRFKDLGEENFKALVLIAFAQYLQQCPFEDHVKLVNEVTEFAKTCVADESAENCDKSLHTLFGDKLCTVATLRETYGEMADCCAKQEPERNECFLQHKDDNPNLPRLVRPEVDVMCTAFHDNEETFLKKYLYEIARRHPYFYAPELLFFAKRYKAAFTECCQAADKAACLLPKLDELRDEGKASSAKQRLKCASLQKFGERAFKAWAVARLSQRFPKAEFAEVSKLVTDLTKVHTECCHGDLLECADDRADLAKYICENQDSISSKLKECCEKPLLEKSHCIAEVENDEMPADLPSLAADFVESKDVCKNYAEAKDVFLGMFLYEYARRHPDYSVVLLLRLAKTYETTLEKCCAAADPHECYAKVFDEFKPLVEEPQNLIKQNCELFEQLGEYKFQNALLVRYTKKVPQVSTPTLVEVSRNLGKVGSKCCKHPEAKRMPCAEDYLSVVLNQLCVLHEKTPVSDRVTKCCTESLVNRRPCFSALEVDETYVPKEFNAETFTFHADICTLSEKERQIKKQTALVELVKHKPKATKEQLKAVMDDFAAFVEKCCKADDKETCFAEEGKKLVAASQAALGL

Structure (SMILES): CCCCCCCCCCCCOS(=O)(=O)[O-].[Na+] [sodium dodecyl sulfate]
- specificity of the test for albumin [1]: decreased the specificity

Structure (SMILES): CCCCCCCCCC(=O)O [Decanoic acid]
- % change in response, Urinary proteins 40 mg/dL [2]: 2%
- protein response [3]: did not affect the protein response
- % change in response, HSA 30 mg/dL [3]: 7%

Structure (SMILES): CCCCCCCCCCO [Decanol]
- % change in response, Urinary proteins 40 mg/dL [2]: 8%
- protein response [3]: did not affect the protein response
- % change in response, HSA 30 mg/dL [3]: 3%

Structure (SMILES): CCCCCCCCCCCCCCCC(=O)O [Hexadecanoic acid]
- % change in response, Urinary proteins 40 mg/dL [2]: 1%

Structure (SMILES): CCCCCCCCCCCCCCCC(=O)O [Palmitate, palmitic acid]
- effect on the binding of phenol red to albumin [4]: modest inhibitory effects
